# Assay results taken from US9428504B2, “7-hydroxy-spiropipiperidine indolinyl antagonists of P2Y1 receptor” (BRISTOL-MYERS SQUIBB COMPANY, priority 2012, dated 2016).
# Structures can show the parent of a compound that is named as a salt. Where two headings read alike, the source gives them in different places.
# Legend:
# [1] = system: human platelet rich plasma (PRP); assay: ADP induced platelet aggregation assay
# Protocol: The ability of P2Y1 antagonists covered in the present invention to inhibit platelet aggregation induced by 10 μM ADP was tested using human platelet rich plasma (PRP) as described in Platelet Protocols: Research and Clinical Laboratory Procedures (White, M. M. et al., Academic Press (1999)). Human blood was collected in 30 μM (final concentration in blood) argatroban (GSK) as the anticoagulant at a ratio of 1 ml per 9 ml of blood. The PRP was isolated by centrifugation at 170 g for 12 minutes. The platelet poor plasma (PPP) was used as the blank for optical aggregometry. Compounds of the present invention in DMSO solution was preincubated with 250 μl PRP at 37° C. for 1 minute with stirring speed of 1000 rpm. Aggregation was initiated by addition of 2.5 μl of 1 mM ADP (Chrono-log, Havertown, Pa.) for a final ADP concentration of 10 μM. Platelet aggregation was monitored using Optical Aggregometer (Chrono-log, Havertown, Pa.) and the area under the curve (AUC) at 5 minute was measured. IC50 was calculated using vehicle control as 0% inhibition.
# [2] = target: cloned human P2Y1 receptors (Homo sapiens (Human), UniProt P47900); assay: Binding Assay B: Scintillation Proximity Assay (SPA) for P2Y1 binding; details: SPA, [33P] 2MeS-ADP displacement; read-out: P2Y1 Ki (nM) using binding assay B
# How it was run: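 Scintillation proximity readout of 0.3 nM [^33P] tracer displacement from receptor membranes (~15 fmol receptor, 1.7 μg protein). Binding ran 1 h at room temperature to completion; plates were then centrifuged and aqueous phase aspirated before counting.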
# [3] = Homo sapiens, Platelet, read-out: PA IC50 (μM) @ 10 μM ADP, platelet aggregation induced by 10 μM ADP, human PRP
# Sequence of cloned human P2Y1 receptors (P47900 whole entry): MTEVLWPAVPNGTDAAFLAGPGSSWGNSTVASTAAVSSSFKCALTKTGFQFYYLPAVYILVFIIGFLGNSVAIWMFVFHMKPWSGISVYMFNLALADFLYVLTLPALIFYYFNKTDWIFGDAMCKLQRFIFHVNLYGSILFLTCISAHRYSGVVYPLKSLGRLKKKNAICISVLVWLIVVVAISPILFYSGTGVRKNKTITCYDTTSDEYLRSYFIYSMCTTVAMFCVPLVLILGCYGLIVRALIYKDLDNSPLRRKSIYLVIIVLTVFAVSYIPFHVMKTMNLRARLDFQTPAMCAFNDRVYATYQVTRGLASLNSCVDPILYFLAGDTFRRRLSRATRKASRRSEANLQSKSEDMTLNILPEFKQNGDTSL
SMILES,"IC50 [1, 3] [µM]",Ki [2] [nM],"IC50 ([1]; read-out: PA IC50 (μM) @ 10 μM ADP, platelet aggregation induced by 10 μM ADP, human PRP) [µM]"
"COc1ccc2nc(NC(=O)Nc3ccccc3N3CC4(CCN(CC(C)(C)C)CC4)c4c(Cl)ccc(O)c43)sc2n1 [Example 169, 1-(2-(4-Chloro-7-hydroxy-1′-neopentylspiro[indoline-3,4′-piperidine]-1-yl)phenyl)-3-(5-methoxythiazolo[5,4-b]pyridin-2-yl)urea]",0.2,11.5,
"CC(C)c1nsc(NC(=O)Nc2ccccc2N2CC3(CCN(CC(C)(C)C)CC3)c3c(C(F)(F)F)ccc(O)c32)n1 [Example 19, 1-(2-(7-Hydroxy-1′-neopentyl-4-(trifluoromethyl)spiro[indoline-3,4′-piperidine]-1-yl)phenyl)-3-(3-isopropyl-1,2,4-thiadiazol-5-yl)urea]",0.2,7.5,
"CC(C)(C)CN1CCC2(CC1)CN(c1ccccc1NC(=O)Nc1ccc(C(C)(C)C)cc1)c1c(O)ccc(C#N)c12 [Example 82, l-(4-tert-Butylphenyl)-3-(2-(4-cyano-7-hydroxy-1′-neopentylspiro[indoline-3,4′-piperidine]-l-yl)phenyl)urea, trifluoroacetic acid salt]",1,24.8,
"CC(C)(C)CN1CCC2(CC1)CN(c1ccccc1NC(=O)Nc1nc3ccc(Cl)nc3s1)c1c(O)ccc(F)c12 [Example 168, 1-(5-Chlorothiazolo[5,4-b]pyridin-2-yl)-3-(2-(4-fluoro-7-hydroxy-1′-neopentylspiro-[indoline-3,4′-piperidine]-1-yl)phenyl)urea]",0.3,8.6,
"CC(C)(C)CN1CCC2(CC1)CN(c1ccccc1NC(=O)Nc1nc3c(s1)CCC3)c1c(O)ccc(Cl)c12 [Example 46, 1-(2-(4-Chloro-7-hydroxy-1′-neopentylspiro[indoline-3,4′-piperidine]-1-yl)phenyl)-3-(5,6-dihydro-4H-cyclopenta[d]thiazol-2-yl)urea, TFA]",0.3,6.2,
"CC(C)(C)CN1CCC2(CC1)CN(c1ccccc1NC(=O)Nc1nc3ccc(Cl)nc3s1)c1c(O)ccc(-c3nc4c(Cl)cccc4s3)c12 [Example 117, 1-(2-(4-(4-Chlorobenzo[d]thiazol-2-yl)-7-hydroxy-1′-neopentylspiro[indoline-3,4′-piperidin]-1-yl)phenyl)-3-(5-chlorothiazolo[5,4-b]pyridin-2-yl)urea]",0.6,29.6,
"CC(C)(C)CN1CCC2(CC1)CN(c1ccccc1NC(=O)Nc1nc3ccc(Cl)cc3s1)c1c(O)ccc(C#N)c12 [Example 83, l-(6-Chlorobenzo[d]thiazol-2-yl)-3-(2-(4-cyano-7-hydroxy-1′-neopentylspiro[indoline-3,4′-piperidine]-1-yl)phenyl) urea, trifluoroacetic acid salt]",0.2,5.7,
"CC(C)(C)CN1CCC2(CC1)CN(c1ccccc1NC(=O)Nc1ccc(F)c(F)c1)c1c(O)ccc(C(F)(F)F)c12 [Example 15, 1-(3,4-Difluorophenyl)-3-(2-(7-hydroxy-1′-neopentyl-4-(trifluoromethyl)spiro[indoline-3,4′-piperidine]-1-yl)phenyl)urea]",0.5,5.1,
"CC(C)(C)CN1CCC2(CC1)CN(c1ccccc1NC(=O)Nc1ccc(C(C)(C)C)cc1)c1c(O)ccc(C(F)(F)F)c12 [Example 11, 1-(4-tert-Butylphenyl)-3-(2-(7-hydroxy-1′-neopentyl-4-(trifluoromethyl)spiro[indoline-3,4′-piperidine]-1-yl)phenyl)urea]",0.1,7.9,
"CC(C)(C)CN1CCC2(CC1)CN(c1ccccc1NC(=O)Nc1ccc(OC(F)(F)F)cc1)c1c(O)ccc(F)c12 [Example 6, 1-(2-(4-Fluoro-7-hydroxy-1′-neopentylspiro[indoline-3,4′-piperidine]-1-yl)phenyl)-3-(4-(trifluoromethoxy)phenyl)urea]",0.9,4.4,
"COC(=O)c1ccc(O)c2c1C1(CCN(CC(C)(C)C)CC1)CN2c1ccccc1NC(=O)Nc1ccc(F)cc1F [Example 78, Methyl 1-(2-(3-(2,4-difluorophenyl)ureido)phenyl)-7-hydroxy-1′-neopentylspiro[indoline-3,4′-piperidine]-4-carboxylate]",0.7,7.9,
"COC(=O)c1ccc(O)c2c1C1(CCN(CC(C)(C)C)CC1)CN2c1ccccc1NC(=O)Nc1ccc(OC(F)(F)F)cc1 [Example 79, Methyl 7-hydroxy-1′-neopentyl-1-(2-(3-(4-(trifluoromethoxy)phenyl)ureido)phenyl)-spiro[indoline-3,4′-piperidine]-4-carboxylate]",0.7,9,
"CC(C)(C)CN1CCC2(CC1)CN(c1ccccc1NC(=O)Nc1csc(C(F)(F)F)n1)c1c(O)ccc(-c3nc4ccc(F)cc4s3)c12 [Example 132, 1-(2-(4-(6-Fluorobenzo[d]thiazol-2-yl)-7-hydroxy-1′-neopentylspiro[indoline-3,4′-piperidin]-1-yl)phenyl)-3-(2-(trifluoromethyl)thiazol-4-yl)urea]",0.7,12.4,
"CC(C)(C)CN1CCC2(CC1)CN(c1ccccc1NC(=O)Nc1nc3ccc(Cl)cc3s1)c1c(O)cc(F)c(F)c12 [Example 96, l-(6-Chlorobenzo[d]thiazol-2-yl)-3-(2-(4,5-difluoro-7-hydroxy-1′-neopentylspiro[indoline-3,4′-piperidine]-1-yl)phenyl)urea]",0.3,25.8,
"CC(C)(C)CN1CCC2(CC1)CN(c1ccccc1NC(=O)Nc1nc3ccc(Cl)cc3s1)c1c(O)cc(F)c(-c3nc4cc(Cl)ccc4s3)c12 [Example 141, 1-(6-Chlorobenzo[d]thiazol-2-yl)-3-(2-(4-(5-chlorobenzo[d]thiazol-2-yl)-5-fluoro-7-hydroxy-1′-neopentylspiro[indoline-3,4′-piperidin]-1-yl)phenyl)urea]",0.9,33.9,
"CC(C)(C)CN1CCC2(CC1)CN(c1ccccc1NC(=O)Nc1nc3ccc(F)cc3s1)c1c(O)ccc(Cl)c12 [Example 39, 1-(2-(4-Chloro-7-hydroxy-1′-neopentylspiro[indoline-3,4′-piperidine]-1-yl)phenyl)-3-(6-fluorobenzo[d]thiazol-2-yl)urea]",0.2,3.8,
"CC(C)(C)CN1CCC2(CC1)CN(c1ccccc1NC(=O)Nc1nc3ccc(Cl)nc3s1)c1c(O)ccc(Cl)c12 [Example 166, 1-(2-(4-Chloro-7-hydroxy-1′-neopentylspiro[indoline-3,4′-piperidine]-1-yl)phenyl)-3-(5-chlorothiazolo[5,4-b]pyridin-2-yl)urea]",,6.8,0.1
"CC(C)(C)CN1CCC2(CC1)CN(c1ccccc1NC(=O)Nc1csc(Cl)n1)c1c(O)ccc(-c3nc4c(Cl)cccc4s3)c12 [Example 118, 1-(2-(4-(4-Chlorobenzo[d]thiazol-2-yl)-7-hydroxy-1′-neopentylspiro[indoline-3,4′-piperidin]-1-yl)phenyl)-3-(2-chlorothiazol-4-yl)urea]",0.3,15.5,
"CC(C)(C)CN1CCC2(CC1)CN(c1ncccc1NC(=O)Nc1ccc(OC(F)(F)F)cc1)c1c(O)ccc(C(F)(F)F)c12 [Example 12, 1-(2-(7-Hydroxy-1′-neopentyl-4-(trifluoromethyl)spiro[indoline-3,4′-piperidine]-1-yl)pyridin-3-yl)-3-(4-(trifluoromethoxy)phenyl)urea]",1.4,5.6,
"CC(C)(C)CN1CCC2(CC1)CN(c1ccccc1NC(=O)Nc1nc3ccc([N+](=O)[O-])cc3s1)c1c(O)ccc(Cl)c12 [Example 51, 1-(2-(4-Chloro-7-hydroxy-1′-neopentylspiro[indoline-3,4′-piperidine]-1-yl)phenyl)-3-(6-nitrobenzo[d]thiazol-2-yl)urea, TFA]",0.5,10.8,
"CC(C)(C)CN1CCC2(CC1)CN(c1ccccc1NC(=O)Nc1ccc(OC(F)(F)F)cc1)c1c(O)ccc(-c3nc4ccc(Br)cc4s3)c12 [Example 121, 1-(2-(4-(6-Bromobenzo[d]thiazol-2-yl)-7-hydroxy-1′-neopentylspiro[indoline-3,4′-piperidin]-1-yl)phenyl)-3-(4-(trifluoromethoxy)phenyl)urea]",0.4,45.6,
"CC(C)(C)CN1CCC2(CC1)CN(c1ccccc1NC(=O)Nc1nc3ccc(F)cc3s1)c1c(O)ccc(F)c12 [Example 32, 1-(2-(4-Fluoro-7-hydroxy-1′-neopentylspiro[indoline-3,4′-piperidine]-1-yl)phenyl)-3-(6-fluorobenzo[d]thiazol-2-yl)urea]",0.3,7.4,
"CC(C)C(=O)N1CCc2nc(NC(=O)Nc3ccccc3N3CC4(CCN(CC(C)(C)C)CC4)c4c(Cl)ccc(O)c43)sc2C1 [Example 73, 1-(2-(4-Chloro-7-hydroxy-1′-neopentylspiro[indoline-3,4′-piperidine]-1-yl)phenyl)-3-(5-isobutyryl-4,5,6,7-tetrahydrothiazolo [5,4-c]pyriidn-2-yl)urea]",0.5,17.9,
"COC(=O)c1ccc(O)c2c1C1(CCN(CC(C)(C)C)CC1)CN2c1ccccc1NC(=O)Nc1nc2ccc(F)cc2s1 [Example 77, Methyl 1-(2-(3-(6-fluorobenzo[d]thiazol-2-yl)ureido)phenyl)-7-hydroxy-1′-neopentylspiro[indoline-3,4′-piperidine]-4-carboxylate]",0.3,8.7,
"CC(C)(C)CN1CCC2(CC1)CN(c1ccccc1NC(=O)Nc1ccc(OC(F)(F)F)cc1)c1c(O)c(F)cc(-c3ccc(Cl)cc3)c12 [Example 156, 1-(2-(4-(4-Chlorophenyl)-6-fluoro-7-hydroxy-1′-neopentylspiro[indoline-3,4′-piperidin]-1-yl)phenyl)-3-(4-(trifluoromethoxy)phenyl)urea]",0.2,20.2,
